In a melting point compilation (Tetko et al.) one finds melting point data, which are given here for 124 compounds.

What is called melting point is the temperature, or range, at which the solid turns liquid. In the case of `Cc1cc(N2CCNCC2)nc(C(C)C)n1`, the melting point lay in the range of 42 to 46 °C.
`CC(=O)c1cc(Cl)cc(CCl)c1O`: the melting point lay in the range of 72 to 74 °C.
The compound `CC(=O)c1c[nH]c(C(=O)N2CCCC(CO)C2)c1` (centres undefined) gave a melting point of 146 to 148 °C.
`CC(Cl)C(=O)NC(=O)NC1CC1` (centres undefined) returned a melting point of 88 to 90 °C.
For `Cc1cc(O)n(C(C)(C)C)n1` the value was 125 to 127 °C; for `Cc1cc(S(=O)(=O)Cl)sc1Br`, 35 to 37 °C.
For the compound `CCOC(=O)c1c(N)oc(C)c1C(C)=O`, the melting point lay within 135 to 137 °C.
As for `O=C(O)C(O)c1cc(Cl)cc(Cl)c1` (centres undefined), the figure is 99 to 101 °C; as for `COc1ccc2cncnc2c1`, 83 to 85 °C.
In the case of `CC(C)C(=O)c1ccc(S(=O)(=O)Cl)cc1`, the melting point lay in the range of 64 to 66 °C.
Consider `O=Cc1cc(Cl)c2c(c1)OCCCO2`, for which the melting point lay within 78 to 82 °C.
`COc1ccc(S(=O)(=O)N2CCOCC2)cc1N` displayed a melting point of 189 to 191 °C.
In turn, `CC(C)c1ccc(C(=O)N2CCNCC2)cc1` came in with a melting point of 129 to 131 °C.
`Cc1[nH]c(-c2cccnc2)nc(=NN)c1C` displayed a melting point of 194 to 196 °C.
Compound `N#Cc1ccc(Oc2ccc(S(=O)(=O)Cl)cc2)cc1` came in with a melting point of 110 to 112 °C.
As for `O=c1c(-c2ccccc2)coc2cc(O)ccc12`, the melting point was 201 to 203 °C.
Take `Nc1sc2c(c1C(=O)c1ccccc1)CCCC2`: the melting point was in the range of 123 to 127 °C.
`Nc1ccccc1-c1nc(C2CC2)no1` returned a melting point of 84 to 86 °C.
As for `CCNC(=O)c1ccc(O)cc1`, the melting point lay in the range of 109 to 111 °C.
`FC(F)(F)c1ccc(CNc2ccc(Br)cc2)cc1` came in with a melting point of 70 to 72 °C.
For `CC(C)(N)CCS(C)(=O)=O` the value was 41 to 43 °C; for `Nc1nnc(CC(F)(F)F)o1`, 132 to 134 °C; for `Cc1cc(-c2ncc[nH]2)c(=O)[nH]n1`, 254 to 256 °C.
As for `N#CCCNC(=O)CCl`, the figure is 96 to 98 °C; as for `Sc1nnc(-c2ccco2)n1C1CCCCC1`, 134 to 136 °C.
The compound `ClCc1ncc(-c2ccccc2)o1` had a melting point of 63 to 65 °C.
The compound `NC(=O)N1CCCC1` had a melting point of 222 to 224 °C.
For `N#CCOc1ccc(CCl)cc1` the value was 63 to 65 °C; for `CN1C(=O)N(CC(=O)O)C(=O)C12CCCCC2`, 220 to 222 °C; for `O=C(O)Cc1n[nH]c2ccccc12`, 167 to 169 °C.
Consider `CC(C)(C)OC(=O)Nc1ccc(CC#N)cc1`, for which the melting point lay in the range of 119 to 121 °C.
The compound `CSCCC(NC(=O)c1ccccc1Br)C(=O)O` (centres undefined) came in with a melting point of 171 to 173 °C.
`CCOC(=O)c1cnc2c(OC)cc(OC)cc2c1Cl` returned a melting point of 148 to 150 °C.
The compound `COc1ccc(C(=O)CCl)cc1Br` returned a melting point of 85 to 87 °C.
On to `Cc1nnc(S)o1`, for which the melting point lay within 239 to 241 °C.
Compound `CC(C)C(=O)c1ccc2[nH]c(=O)oc2c1` yielded a melting point of 188 to 190 °C.
Turning to `CCC(C)NS(=O)(=O)c1ccc(C(=O)O)cc1` (centres undefined), the melting point lay within 219 to 221 °C.
Take `Cc1cc(C)c2cc(C(=O)O)[nH]c2c1`: the melting point is 168 to 170 °C.
Turning to `Cc1nc2cc(=O)[nH]n2c(C)c1CC(=O)O`, the melting point lay in the range of 285 to 287 °C.
As for `CC1CCc2c(sc3nc(CC#N)[nH]c(=O)c23)C1` (centres undefined), the figure is 266 to 268 °C; as for `Cc1cc(CC(=O)O)c(C)s1`, 66 to 68 °C.
For the compound `CCOc1ccccc1-c1cccc(C(=O)O)c1`, the melting point lay in the range of 144 to 146 °C.
For `CC(C)(C)OC(=O)NCC1CCCCS1(=O)=O` (centres undefined), the melting point lay in the range of 97 to 99 °C.
As for `COc1ccc(N)cc1OCC(N)=O`, the figure is 161 to 163 °C.
In turn, `COC(=O)c1cc(Cl)cc([N+](=O)[O-])c1O` yielded a melting point of 163 to 165 °C.
Regarding `NNc1ccc(S(=O)(=O)NC2CCCC2)cn1`, the melting point is 167 to 169 °C.
As for `CC(C)c1cc(Br)ccc1O`, the figure is 48 to 50 °C.
Compound `O=C1NC(=O)C2CC12` (centres undefined) yielded a melting point of 94 to 96 °C.
`CCC(C)Oc1ccc(C(=O)O)cc1` (centres undefined) came in with a melting point of 118 to 120 °C.
In the case of `O=C(NCC1CCCNC1)c1ccccc1` (centres undefined), the melting point lay in the range of 82 to 84 °C.
`COc1ccc(-c2cc(C(=O)O)[nH]n2)cc1` showed a melting point of 209 to 211 °C.
In the case of `Nc1cc(Cl)c(Cl)cn1`, the melting point was in the range of 140 to 142 °C.
Turning to `Cc1ccc(-c2nnc(S)o2)cc1C`, the melting point fell in the range of 195 to 197 °C.
As to `O=C(O)C1Cc2ccccc2S1` (centres undefined), the melting point was 107 to 109 °C.
As to `O=C(O)CS(=O)(=O)c1ccc(Br)cc1`, the melting point was 145 to 147 °C.
For `CC(C)OCCS(=O)(=O)NCC(=O)O`, the melting point was 63 to 65 °C.
In turn, `Cn1cc(S(=O)(=O)NCC(=O)O)cn1` came in with a melting point of 201 to 203 °C.
As for `CC(C)Cc1nc(N)sc1C(=O)O`, the figure is 149 to 151 °C; as for `O=C1Nc2c(ccc(Cl)c2Cl)C1=O`, 203 to 205 °C; as for `CC(C)S(=O)(=O)c1ccc(CCl)cc1`, 69 to 71 °C.
`COc1ccc(C(=O)CSc2nc(C)n[nH]2)cc1Br` registered a melting point of 158 to 160 °C.
Turning to `CC(=O)CCCOc1ccccc1C(N)=O`, the melting point lay in the range of 80 to 82 °C.
In turn, `CNC(=O)Cn1nc(N)cc1C` yielded a melting point of 115 to 117 °C.
As for `O=C(O)CC1Sc2ccc(Cl)cc2NC1=O` (centres undefined), the figure is 240 to 242 °C; as for `COc1c(C(=O)O)cc(Cl)cc1[N+](=O)[O-]`, 161 to 163 °C.
On to `O=C(O)C=C1CCC1`, for which the melting point is 89 to 91 °C.
`Cc1sc(C(=O)O)cc1[N+](=O)[O-]` returned a melting point of 97 to 99 °C.
`O=C(O)c1cccc(-c2noc(C3CC3)n2)c1` had a melting point of 158 to 160 °C.
As for `COCCCn1cnnc1S`, the melting point fell in the range of 161 to 163 °C.
`CC1(c2ccc(Br)cc2)NC(=O)N(CC(=O)O)C1=O` (centres undefined) displayed a melting point of 247 to 249 °C.
Compound `Fc1cc(Br)cc2cc(Br)cnc12` gave a melting point of 161 to 163 °C.
For `O=c1[nH]c(S)nc2sccc12` the value was 315 to 317 °C; for `O=C(NCc1ccco1)c1cccc(CCl)c1`, 74 to 76 °C; for `COc1c([N+](=O)[O-])ccc(C=O)c1OC(F)F`, 95 to 97 °C.
For `COc1cc(CN)cc(OC)c1O` the value was 149 to 151 °C; for `Cc1cccc2[nH]cc(CCC(=O)O)c12`, 145 to 147 °C; for `CN(C)C(=O)COc1ccc(C#N)cc1`, 110 to 112 °C.
Consider `O=C(O)C1CCCCN1S(=O)(=O)c1ccc([N+](=O)[O-])cc1` (centres undefined), for which the melting point lay in the range of 161 to 163 °C.
For `Cc1ccc(SC2(C(=O)O)CCCC2)cc1`, the melting point was 80 to 82 °C.
The compound `Cc1nc(C2CCCC2)sc1C(=O)O` showed a melting point of 185 to 187 °C.
In the case of `O=Cc1sc(N2CCCCC2)nc1-c1cccs1`, the melting point was in the range of 117 to 119 °C.
Compound `O=C1C(Br)CCCN1c1ccccc1Cl` (centres undefined) showed a melting point of 108 to 110 °C.
`Nc1cc(NC(=O)c2ccccc2I)ccc1Cl` gave a melting point of 189 to 191 °C.
For `COC(=O)c1ccc(Br)s1` the value was 60 to 62 °C; for `Cc1ccc(-c2cc(C(=O)O)on2)cc1`, 204 to 206 °C.
As for `CCC1NC(=O)NC1=O` (centres undefined), the figure is 115 to 119 °C; as for `Cc1c(I)cccc1C(=O)O`, 113 to 115 °C.
For `Cc1cc(=O)c(C(=O)O)nn1-c1ccccc1Cl` the value was 215 to 217 °C; for `Brc1cc[nH]n1`, 74 to 76 °C.
In turn, `CNC1CCN(c2ccc(Cl)cc2)CC1` gave a melting point of 49 to 51 °C.
Take `CN(CC(=O)O)c1ccccc1[N+](=O)[O-]`: the melting point was in the range of 69 to 71 °C.
With `Nc1ccc2c(c1)OCC(=O)N2`, the melting point lay within 217 to 219 °C.
As for `NC(=O)C1CCNc2ccccc21` (centres undefined), the figure is 119 to 121 °C.
As for `O=C(NO)c1cccs1`, the figure is 124 to 126 °C; as for `Sc1ncn(-c2ccccc2)n1`, 173 to 175 °C; as for `CC1CCN(C(=O)c2cccnc2Cl)CC1`, 96 to 98 °C.
For the compound `O=C1CCc2cc(F)ccc2N1`, the melting point is 134 to 136 °C.
The compound `CC(C)(C)c1noc(C(N2CCOCC2)N2CCOCC2)n1` yielded a melting point of 80 to 82 °C.
For the compound `CC(C)(C)OC(=O)N1CCN(CCS(N)(=O)=O)CC1`, the melting point lay within 138 to 140 °C.
The compound `CC(C)Cc1ccc(C(=O)c2cccs2)cc1` came in with a melting point of 112 to 114 °C.
As for `O=C(O)CCC(=O)NCC(=O)c1ccccc1Cl`, the figure is 151 to 153 °C.
In turn, `Cc1c(C(=O)O)sc2cccc(F)c12` registered a melting point of 230 to 232 °C.
As for `CN1CCN(S(=O)(=O)c2ccc(C(=O)NN)cc2)CC1`, the melting point fell in the range of 170 to 172 °C.
For `Nc1nncc(-c2cccc(F)c2)n1` the value was 224 to 226 °C.
With `CC(=O)NCCc1ccc(C(=O)CCl)cc1F`, the melting point was 97 to 99 °C.
`NC(=O)c1cnc(Cl)c(Cl)c1` had a melting point of 204 to 206 °C.
Take `CCOC(=O)C(=O)c1c(C)[nH]c2ccccc12`: the melting point was 127 to 129 °C.
Compound `CCCCn1c(N)c(NCc2ccccc2OC)c(=O)[nH]c1=O` had a melting point of 198 to 200 °C.
With `CC(C)(C)n1cnnc1SCC(=O)O`, the melting point was in the range of 161 to 163 °C.
`O=C1C=CC(=O)N1c1cccc(Cl)c1` registered a melting point of 86 to 88 °C.
`Cc1nc(Cl)c2c(-c3ccccc3)csc2n1` came in with a melting point of 169 to 173 °C.
For the compound `Cc1ccc2c(CCN)c[nH]c2c1`, the melting point was 139 to 141 °C.
With `CC(C)(C)OC(=O)N1CCc2cc(N)ccc21`, the melting point was 84 to 86 °C.
Turning to `CCN(CC)C(=O)CCC(=O)O`, the melting point lay within 74 to 76 °C.
The compound `CC(C)(C)OC(=O)N1CCCC(COS(C)(=O)=O)C1` (centres undefined) yielded a melting point of 76 to 78 °C.
On to `O=C(O)CCc1cccc(F)c1F`, for which the melting point lay within 106 to 108 °C.
As to `N#Cc1c(N)sc2c1-c1ccccc1CC2`, the melting point is 166 to 168 °C.
As to `NS(=O)(=O)c1cc(C(F)(F)F)ccc1F`, the melting point lay within 127 to 129 °C.
The compound `Cc1cc(NC(=O)Nc2cc(C)nn2C)n(C)n1` yielded a melting point of 209 to 211 °C.
For the compound `COc1ncnc(Cl)c1N`, the melting point lay within 70 to 72 °C.
As for `Nc1sc2c(c1-c1nc3ccccc3s1)CCC2`, the figure is 135 to 137 °C; as for `O=C(O)c1ccn(-c2ccccc2F)n1`, 122 to 124 °C.
Consider `O=C(CC(F)(F)F)c1ccc(Br)cc1`, for which the melting point was in the range of 73 to 75 °C.
For the compound `Cc1nc(-c2ccccc2N)no1`, the melting point lay in the range of 77 to 79 °C.
